In patent US9101638B2, “Boronic acid derivatives and therapeutic uses thereof” (Rempex Pharmaceuticals, Inc., priority 2013, dated 2015):

What was measured:
[1] = target: T1, Dipeptidyl peptidase 9 (DPP9) (Homo sapiens, UniProt Q86TI2); experiment: Serine protease inhibition: DPP9; format: biochemical, mammalian; conditions: Table 8B; read-out: IC50 DPP9
T1 construct: purchased BPS Bioscience 80090
Procedure: (§1) The effect of selected BLIs on the enzymatic activity of some common mammalian serine proteases was evaluated.
(§2) 50 μl of the diluted enzyme was mixed with 50 μl of inhibitor at various concentrations and 50 μl of corresponding buffer (Table 7). Reaction mixtures were incubated for 10 min at 37° C. Subsequently, 50 μl of corresponding substrate (Table 7) was added and absorbance or fluorescence was monitored for 30 min on SpectraMax M2 plate reader (Molecular Devices). 4-(2-Aminoethyl)benzenesulfonyl fluoride hydrochloride (AEBSF) and leupeptin were used as positive controls. Rates of reaction were calculated and presented relative to “no treatment” control.

[2] = test system: ec302 (TEM-10); experiment: Potentiation of aztreonam, strain ec302; format: cell-based
[3] = target: T2, Elastase (Sus scrofa, UniProt P00772); experiment: Serine protease inhibition: elastase; format: biochemical, mammalian; conditions: Table 8A, class symbols; read-out: IC50 Elastase
T2 construct: purchased Calbiochem 324682
Procedure: as §1, §2

[4] = target: T3, CathepsinG (Homo sapiens, UniProt P08311); experiment: Serine protease inhibition: cathepsin G; format: biochemical, mammalian; conditions: Table 8B
T3 construct: purchased EMD Millipore 219373
T3 sequence (P08311 21-244): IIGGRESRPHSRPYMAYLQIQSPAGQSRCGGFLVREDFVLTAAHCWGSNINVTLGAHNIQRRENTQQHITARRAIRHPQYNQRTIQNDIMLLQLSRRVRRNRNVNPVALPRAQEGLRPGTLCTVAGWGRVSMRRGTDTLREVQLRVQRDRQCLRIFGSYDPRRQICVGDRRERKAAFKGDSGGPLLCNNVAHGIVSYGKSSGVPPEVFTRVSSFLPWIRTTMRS
Procedure: as §1, §2

[5] = test system: KP1009 (CTX-M-15); experiment: Potentiation of aztreonam, strain KP1009; format: cell-based
[6] = target: P99 (Enterobacter cloacae, UniProt P05364); experiment: Inhibition of nitrocefin cleavage by purified P99; format: biochemical; conditions: nitrocefin reporter substrate, purified enzyme; read-out: Ki (P99, NCF)
Procedure: Purified enzymes were mixed with various concentrations of inhibitors in reaction buffer and incubated for 10 min at room temperature. Nitrocefin was added and substrate cleavage profiles were recorded at 490 nm every 10 sec for 10 min.

[7] = target: T4, Thrombin (Homo sapiens, UniProt P00734); experiment: Serine protease inhibition: thrombin; format: biochemical, mammalian; conditions: Table 8A, class symbols; read-out: IC50 Thrombin
T4 construct: Thrombin; MPBio; 19491880; purchased MPBio 19491880
How it was run: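 Each enzyme was preincubated with inhibitor at various concentrations in its corresponding buffer for 10 min at 37° C, after which its substrate was added. Absorbance or fluorescence was followed for 30 min, and reaction rates were expressed relative to an untreated control.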

[8] = target: KPC-2 (Klebsiella pneumoniae, UniProt Q9F663); experiment: Inhibition of nitrocefin cleavage by purified KPC-2; format: biochemical; conditions: nitrocefin reporter substrate, purified enzyme; read-out: Ki (KPC-2, NCF)
How it was run: (§3)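 10 min RT preincubation, enzyme with inhibitor series in reaction buffer. Substrate nitrocefin; kinetic read 490 nm, 10 sec intervals, 10 min total.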

[9] = test system: PAM1154/KPC-2; experiment: Biapenem potentiation in PAM1154/KPC-2 (MexAB-OprM lacking); format: cell-based, Pseudomonas aeruginosa
Procedure: Efflux of BLIs from Pseudomonas aeruginosa by the MexAB-OprM efflux pump was also evaluated. […] Due to expression of KPC-2 both strains became resistant to biapenem. […] Potency of BLIs to potentiate biapenem in these strains was determined. […] The ratio of MPC64 values for each BLI in PAM1032/KPC-2 (efflux proficient) and PAM1154/KPC-2 (efflux deficient) was determined to generate the Efflux Index (EI).

[10] = target: OXA-48 (Klebsiella pneumoniae, UniProt Q6XEC0); experiment: Inhibition of nitrocefin cleavage by purified OXA-48; format: biochemical; conditions: nitrocefin reporter substrate, purified enzyme; read-out: Ki (OXA-48, NCF)
How it was run: as §3

[11] = target: T5, Trypsin (Bos taurus, UniProt P00760); experiment: Serine protease inhibition: trypsin; format: biochemical, mammalian; conditions: Table 8A, class symbols; read-out: IC50 Trypsin
T5 construct: purchased Calbiochem 6502
T5 sequence (P00760 24-246): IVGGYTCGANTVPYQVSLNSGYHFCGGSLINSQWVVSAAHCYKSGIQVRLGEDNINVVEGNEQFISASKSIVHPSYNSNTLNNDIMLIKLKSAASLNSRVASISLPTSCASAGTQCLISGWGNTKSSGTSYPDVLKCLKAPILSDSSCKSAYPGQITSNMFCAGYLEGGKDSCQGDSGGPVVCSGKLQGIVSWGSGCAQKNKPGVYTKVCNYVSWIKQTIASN
Procedure: as §1, §2

[12] = test system: ECL1002; experiment: Potentiation of aztreonam, strain ECL1002; format: cell-based; conditions: minimum BLI concentration inhibiting growth with 4 μg/mL aztreonam
[13] = target: T6, HtrA2 (Homo sapiens, UniProt O43464); experiment: Serine protease inhibition: HtrA2; format: biochemical, mammalian; conditions: Table 8B; read-out: IC50 HtrA2
T6 sequence (O43464 134-458): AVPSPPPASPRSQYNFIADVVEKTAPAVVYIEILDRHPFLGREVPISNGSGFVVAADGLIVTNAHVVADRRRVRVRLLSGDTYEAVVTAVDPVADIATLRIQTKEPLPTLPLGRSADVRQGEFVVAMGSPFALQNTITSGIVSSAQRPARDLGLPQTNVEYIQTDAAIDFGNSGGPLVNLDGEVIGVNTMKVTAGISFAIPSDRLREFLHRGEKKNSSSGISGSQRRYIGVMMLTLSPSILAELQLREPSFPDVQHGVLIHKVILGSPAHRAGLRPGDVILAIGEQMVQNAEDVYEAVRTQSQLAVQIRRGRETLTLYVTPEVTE
Procedure: as §1, §2

[14] = test system: ec302 (TEM-10); experiment: Potentiation of tigemonam, strain ec302; format: cell-based
[15] = test system: EC1010 (CMY-6); experiment: Potentiation of aztreonam, strain EC1010; format: cell-based
[16] = target: CTX-M-14 (Escherichia coli, UniProt Q9L5C7); experiment: Inhibition of nitrocefin cleavage by purified CTX-M-14; format: biochemical; conditions: nitrocefin reporter substrate, purified enzyme; read-out: Ki (CTX-M-14, NCF)
How it was run: as §3

KPC-2, sequence (Q9F663 25-293, looked up, species assumed): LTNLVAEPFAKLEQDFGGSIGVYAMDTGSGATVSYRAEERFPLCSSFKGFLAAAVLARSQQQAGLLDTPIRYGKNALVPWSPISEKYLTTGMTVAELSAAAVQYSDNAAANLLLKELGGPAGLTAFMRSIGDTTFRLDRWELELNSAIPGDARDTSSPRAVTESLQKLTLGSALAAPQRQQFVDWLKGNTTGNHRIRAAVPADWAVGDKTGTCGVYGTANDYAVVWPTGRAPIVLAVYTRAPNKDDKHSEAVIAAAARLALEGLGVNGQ
T2 sequence (P00772 27-266): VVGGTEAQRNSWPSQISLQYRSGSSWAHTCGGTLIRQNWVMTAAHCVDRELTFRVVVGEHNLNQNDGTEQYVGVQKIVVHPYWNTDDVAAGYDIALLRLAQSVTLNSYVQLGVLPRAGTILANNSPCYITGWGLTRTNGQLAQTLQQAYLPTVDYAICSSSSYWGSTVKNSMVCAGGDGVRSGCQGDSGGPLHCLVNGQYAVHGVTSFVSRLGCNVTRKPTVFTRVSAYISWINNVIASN
T1 sequence (Q86TI2 whole entry): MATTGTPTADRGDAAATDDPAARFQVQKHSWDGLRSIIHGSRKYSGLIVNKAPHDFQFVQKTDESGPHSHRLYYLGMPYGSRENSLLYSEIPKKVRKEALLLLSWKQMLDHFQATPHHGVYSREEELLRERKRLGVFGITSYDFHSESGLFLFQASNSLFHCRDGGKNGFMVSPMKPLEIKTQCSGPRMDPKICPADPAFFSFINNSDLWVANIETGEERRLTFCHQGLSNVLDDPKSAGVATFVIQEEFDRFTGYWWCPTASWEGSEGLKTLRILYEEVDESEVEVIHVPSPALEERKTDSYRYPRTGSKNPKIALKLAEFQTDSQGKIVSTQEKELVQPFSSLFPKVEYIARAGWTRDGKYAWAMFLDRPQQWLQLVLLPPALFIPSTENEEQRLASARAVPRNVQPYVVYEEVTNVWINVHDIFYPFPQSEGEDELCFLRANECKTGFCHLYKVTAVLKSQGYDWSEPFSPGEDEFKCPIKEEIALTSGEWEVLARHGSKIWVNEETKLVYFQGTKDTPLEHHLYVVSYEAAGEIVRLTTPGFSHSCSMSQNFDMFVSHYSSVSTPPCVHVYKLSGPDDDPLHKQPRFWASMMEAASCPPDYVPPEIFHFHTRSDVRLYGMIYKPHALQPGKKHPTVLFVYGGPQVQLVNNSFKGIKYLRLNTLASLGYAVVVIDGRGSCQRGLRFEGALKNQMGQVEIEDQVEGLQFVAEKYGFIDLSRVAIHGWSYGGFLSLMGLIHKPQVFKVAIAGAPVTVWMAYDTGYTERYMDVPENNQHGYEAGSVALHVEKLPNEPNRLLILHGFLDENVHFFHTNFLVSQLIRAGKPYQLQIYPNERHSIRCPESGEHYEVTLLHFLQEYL
OXA-48, sequence (Q6XEC0 23-265 limits assumed): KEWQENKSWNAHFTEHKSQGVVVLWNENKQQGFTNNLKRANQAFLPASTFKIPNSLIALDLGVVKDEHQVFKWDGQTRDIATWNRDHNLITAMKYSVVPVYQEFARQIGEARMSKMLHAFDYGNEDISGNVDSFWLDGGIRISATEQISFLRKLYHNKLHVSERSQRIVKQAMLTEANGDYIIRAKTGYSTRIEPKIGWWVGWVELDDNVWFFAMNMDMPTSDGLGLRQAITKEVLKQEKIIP
CTX-M-14, sequence (Q9L5C7 entry or part of it): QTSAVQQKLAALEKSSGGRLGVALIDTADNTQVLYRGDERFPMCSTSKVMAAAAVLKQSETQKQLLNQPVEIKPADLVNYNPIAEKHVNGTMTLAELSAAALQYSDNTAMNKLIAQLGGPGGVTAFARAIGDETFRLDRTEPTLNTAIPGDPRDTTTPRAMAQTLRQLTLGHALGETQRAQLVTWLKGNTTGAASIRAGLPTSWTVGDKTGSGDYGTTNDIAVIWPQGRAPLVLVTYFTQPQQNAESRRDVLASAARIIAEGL
P99, sequence (P05364 21-381): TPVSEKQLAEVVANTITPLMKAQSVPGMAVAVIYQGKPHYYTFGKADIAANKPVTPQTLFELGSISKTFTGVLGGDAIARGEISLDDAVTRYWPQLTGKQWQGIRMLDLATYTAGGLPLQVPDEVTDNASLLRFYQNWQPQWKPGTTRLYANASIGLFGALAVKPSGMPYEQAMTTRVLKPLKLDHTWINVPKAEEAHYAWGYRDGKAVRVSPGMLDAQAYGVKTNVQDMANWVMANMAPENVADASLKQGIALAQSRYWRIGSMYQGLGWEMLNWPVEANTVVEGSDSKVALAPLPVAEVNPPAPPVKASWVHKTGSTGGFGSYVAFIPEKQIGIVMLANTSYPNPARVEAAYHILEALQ

SMILES | IC50 [1] | AZT MPC4 TEM-10 ec302 [2] | IC50 [3] | IC50 [4] | AZT MPC4 CTX-M-15 KP1009 [5] | Ki [6] | IC50 [7] | Ki [8] | PAM1154/KPC-2 Biapenem MPC64 [9] | Ki [10] | IC50 [11] | AZT MPC4 ECL1002 [12] | IC50 [13] | TIG MPC4 TEM-10 ec302 [14] | AZT MPC4 CMY-6 EC1010 [15] | Ki [16]
O=C(CSC(F)F)N[C@H]1Cc2cccc(C(=O)O)c2OB1O [Compound 3, (R)-3-(2-(difluoromethylthio)acetamido)-2-hydroxy-3,4-dihydro-2H-benzo[e][1,2]oxaborinine-8-carboxylic acid] | > 500 µM | Y (key: X = MIC of less than 1 μg/mL; Y = MIC of 1 μg/mL to 10 μg/mL; Z = MIC of greater than 10 μg/mL) | > 800 µM | < 15 µM | Y (key: X = MIC of less than 1 μg/mL; Y = MIC of 1 μg/mL to 10 μg/mL; Z = MIC of greater than 10 μg/mL) | < 0.001 µM | > 800 µM | > 0.01 µM | X (key: X = Less than 10; Y = 10 to 40; Z Greater than 40) | < 0.001 µM | > 800 µM | Y (Y = MIC of 1 μg/mL to 10 μg/mL) | > 500 µM | – | – | –
[N-]=[N+]=NCC(=O)N[C@H]1Cc2cccc(C(=O)O)c2OB1O [Compound 8, (R)-3-(2-azidoacetamido)-2-hydroxy-3,4-dihydro-2H-benzo[e][1,2]oxaborinine-8-carboxylic acid] | > 500 µM | Y (key: X = MIC of less than 1 μg/mL; Y = MIC of 1 μg/mL to 10 μg/mL; Z = MIC of greater than 10 μg/mL) | > 800 µM | < 15 µM | X (key: X = MIC of less than 1 μg/mL; Y = MIC of 1 μg/mL to 10 μg/mL; Z = MIC of greater than 10 μg/mL) | – | > 800 µM | > 0.01 µM | X (key: X = Less than 10; Y = 10 to 40; Z Greater than 40) | < 0.001 µM | > 800 µM | Y (Y = MIC of 1 μg/mL to 10 μg/mL) | > 500 µM | Y (key: X = MIC of less than 1 μg/mL; Y = MIC of 1 μg/mL to 10 μg/mL; Z = MIC of greater than 10 μg/mL) | X (key: X = MIC of less than 1 μg/mL; Y = MIC of 1 μg/mL to 10 μg/mL; Z = MIC of greater than 10 μg/mL) | –
Nc1nnc(SCC(=O)N[C@H]2Cc3cccc(C(=O)O)c3OB2O)s1 [Compound 5, (R)-3-(2-(5-amino-1,3,4-thiadiazol-2-ylthio)acetamido)-2-hydroxy-3,4-dihydro-2H-benzo[e][1,2]oxaborinine-8-carboxylic acid] | > 500 µM | Y (key: X = MIC of less than 1 μg/mL; Y = MIC of 1 μg/mL to 10 μg/mL; Z = MIC of greater than 10 μg/mL) | > 800 µM | < 15 µM | X (key: X = MIC of less than 1 μg/mL; Y = MIC of 1 μg/mL to 10 μg/mL; Z = MIC of greater than 10 μg/mL) | – | > 800 µM | > 0.01 µM | X (key: X = Less than 10; Y = 10 to 40; Z Greater than 40) | – | > 800 µM | Y (Y = MIC of 1 μg/mL to 10 μg/mL) | > 500 µM | Y (key: X = MIC of less than 1 μg/mL; Y = MIC of 1 μg/mL to 10 μg/mL; Z = MIC of greater than 10 μg/mL) | X (key: X = MIC of less than 1 μg/mL; Y = MIC of 1 μg/mL to 10 μg/mL; Z = MIC of greater than 10 μg/mL) | 0.001 to 0.01 µM
